According to patent US9624243B2, “Heterocyclic compounds and methods of their use” (Novartis AG, priority 2012, dated 2017):

Biological target: AT2 receptor (Homo sapiens (Human), UniProt P50052)
Experiment: AT2 Receptor Binding
Settings: HEK293 AT2 receptor transient cell membranes, [125I]-CGP42112A
Procedure: 1. Trypsin-EDTA (for Preparation of 100 mL)
• Dissolve trypsin in 2% EDTA and PBS completely; sterilize the solution by passing through a […] membrane filter; store at 4° C.
2. DMEM Medium (for Preparation of 1 L) • The powder was dissolved into 950 mL of distilled water with gentle stirring until the solution becomes clear. • Add. NaHCO3 1.176 g for DMEM medium. • Adjust pH of medium to 0.2˜0.3 below final working pH using 1 M NaOH or 1 M • HCl. Add slowly with stirring. • Dilute to 1 liter with ddH2O. • Sterilize the medium immediately by filtration. • Store at 4° C.
3. TE Buffer • 20 mM Tris-HCl, pH 7.4, • 5 mM EDTA
4. Binding Assay Buffer • 50 mM Hepes, pH 7.4 • 5 mM MgCl2 • 1 mM CaCl2 • 0.2% BSA
5. Wash Buffer • 50 mM Hepes, pH 7.4 Procedures for HEK293AT2 Receptor Transient Cell Transfection • Cells were plated into 150 mm dish at 50% density for transient transfection. Cells were ready for transfection after overnight incubation (the confluence reaches around 80%). • 75 μL Lipofectamine™2000 diluted in 6.25 mL OptiMEM I Reduced Serum Medium, was mixed gently, and incubated at room temperature for 5 minutes. 50 μg expression plasmid DNA diluted in 6.25 mL OptiMEM I Reduced Serum Medium without serum was mixed gently. • After the 5 minute incubation, the diluted DNA was combined with the diluted Lipofectamine™2000 (total volume is 12.5 mL). The mixture was mixed gently and incubated for 30 minutes at room temperature to allow the DNA-Lipofectamine™2000 complexes to form. • The 12.5 mL DNA-Lipofectamine™2000 complexes were added into the 150 mm dish and mixed gently by rocking the dish back and forth. • The cells were incubated at 37° C. with 5% CO2 for 48 hours. Cells were collected and stored frozen at −80° C. Procedures for HEK293AT2 Receptor Cell Membrane Preparation • Frozen HEK293AT2 receptor (transient transfected) cells were homogenized in ice cold TE buffer for 10s. • The homogenate was centrifuged at 25,000 g for 30 minutes. • The pellet was resuspended in ice cold tissue buffer. • Protein concentrations were determined using Bradford assay method with BSA as standard. • The membrane protein was frozen under −80° C. Compound Preparation
Solutions of all compounds were prepared bymicroplate liquid handling equipment such as Janus or Precision 2000. Compounds, dissolved in DMSO were stored in a Freezer. Compounds were prepared from 30 mM in 100% DMSO.
Step 1: Dose Plate Preparation (96 Well Plate)
• Add the 3 μL [30 mM] compound stock to column 1 on the plate. • Add 15 μL of 100% DMSO to column 1. • Add 10.81 μL of 100% DMSO to column 2-12. • Transfer 5 μL from column 1 into column 2 (half log dilution). • Transfer 5 μL from column 2 into column 3 (half log dilution). • Transfer 5 μL from column 3 into column 4 (half log dilution). • Transfer 5 μL from column 4 into column 5 (half log dilution). • Transfer 5 μL from column 5 into column 6 (half log dilution). • Transfer 5 μL from column 6 into column 7 (half log dilution). • Transfer 5 μL from column 7 into column 8 (half log dilution). • Transfer 5 μL from column 8 into column 9 (half log dilution). • Transfer 5 μL from column 9 into column 10 (half log dilution) • Transfer 5 μL from column 10 into column 11 (half log dilution) • Transfer 5 μL from column 11 into column 12 (half log dilution).
All the compounds were diluted using Precision 2000 microplate liquid handling equipment. The top concentration of compound was 5 mM with 100% DMSO.
Step 2: Working Plate Preparation (96 Well Plate)
• Compounds were diluted 50-fold with buffer. • 49 μL buffer was added to the well of 96 well plate. • 1 μL compound solution from dose plate was transferred to the corresponding well of working plate. • The top concentration of compound was 100 μM with 2% DMSO. Step 3: Assay Plate Preparation (96 Well Plate)
15 μL of compound solution was transferred from each well of working plate to the well of assay plate by Janus.

Sequence of AT2 receptor (P50052 whole entry, species assumed): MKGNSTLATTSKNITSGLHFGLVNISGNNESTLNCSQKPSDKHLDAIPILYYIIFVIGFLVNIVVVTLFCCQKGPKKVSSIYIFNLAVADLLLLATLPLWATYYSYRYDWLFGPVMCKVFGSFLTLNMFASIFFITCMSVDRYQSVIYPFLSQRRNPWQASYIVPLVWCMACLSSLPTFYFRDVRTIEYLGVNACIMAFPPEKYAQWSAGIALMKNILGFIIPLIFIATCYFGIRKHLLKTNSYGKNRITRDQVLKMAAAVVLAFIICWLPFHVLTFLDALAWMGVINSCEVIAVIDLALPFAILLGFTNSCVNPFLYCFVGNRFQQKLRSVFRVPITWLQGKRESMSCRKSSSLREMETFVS

Compound | IC50
O=C(O)[C@H]1[C@H](OCCCc2ccccc2)CN1C(=O)C(c1ccccc1)c1ccccc1 (mixture of isomers) [Compound 143, (2R,3R)-3-(3-phenylpropoxy)-1-(2,2-diphenylacetyl)-azetidine-2-carboxylic acid and (2S,3S)-3-(3-phenylpropoxy)-1-(2,2-diphenylacetyl)-azetidine-2-carboxylic acid] | 372 nM
COc1ccc(C#CCN(C)[C@H]2C[C@@H](C(=O)O)N(C(=O)C(c3ccccc3)c3ccccc3)C2)cc1C [Compound 105, (2S,4S)-1-(2,2-diphenylacetyl)-4-((3-(4-methoxy-3-methylphenyl)prop-2-yn-1-yl)(methyl)amino)pyrrolidine-2-carboxylic acid] | 2490 nM
O=C(O)[C@@H]1C[C@H](CSCCc2ccccc2)CN1C(=O)C(c1ccccc1)c1ccccc1 [Compound 120, (2S,4S)-1-(2,2-diphenylacetyl)-4-((phenethylthio)methyl)pyrrolidine-2-carboxylic acid] | 1200 nM
CN(C(=O)CCc1ccccc1)[C@H]1C[C@@H](C(=O)O)N(C(=O)C(c2ccccc2)c2ccccc2)C1 [Compound 97, (2S,4S)-1-(2,2-diphenylacetyl)-4-(N-methyl-3-phenylpropanamido)pyrrolidine-2-carboxylic acid] | 458 nM
O=C(O)[C@@H]1C[C@H](N2CCCC(Cc3ccccc3)C2)CN1C(=O)C(c1ccccc1)c1ccccc1 (stereo partly drawn) [Compound 53, (2S,4S)-4-(3-benzylpiperidin-1-yl)-1-(2,2-diphenylacetyl)-pyrrolidine-2-carboxylic acid] | 43.9 nM
O=C(O)[C@@H]1C[C@H](OC[C@@H]2C[C@H]2c2ccccc2)CN1C(=O)C(c1ccccc1)c1ccccc1 (mixture of isomers) [Compound 16, (2S,4S)-1-(2,2-diphenylacetyl)-4-(((1R,2R)-2-phenylcyclopropyl)methoxy)pyrrolidine-2-carboxylic acid and (2S,4S)-1-(2,2-diphenylacetyl)-4-(((1S,2S)-2-phenylcyclopropyl)methoxy)pyrrolidine-2-carboxylic acid] | 6650 nM
CN(CCCc1ccccc1)[C@@H]1CN(C(=O)C(c2ccccc2)c2ccccc2)C[C@H]1C(=O)O (mixture of isomers) [Compound 67, (3R,4S)-1-(2,2-diphenylacetyl)-4-(methyl(3-phenylpropyl)amino)pyrrolidine-3-carboxylic acid and (3S,4R)-1-(2,2-diphenylacetyl)-4-(methyl(3-phenylpropyl)amino)pyrrolidine-3-carboxylic acid] | 3660 nM
CS(=O)(=O)N(CCCc1ccccc1)[C@H]1C[C@@H](C(=O)O)N(C(=O)C(c2ccccc2)c2ccccc2)C1 [Compound 99, (2S,4S)-1-(2,2-diphenylacetyl)-4-(N-(3-phenylpropyl)-methylsulfonamido)pyrrolidine-2-carboxylic acid] | 536 nM
O=C(O)[C@@H]1C[C@H](CS(=O)(=O)CCc2ccccc2)CN1C(=O)C(c1ccccc1)c1ccccc1 [Compound 58, (2S,S)-1-(2,2-diphenylacetyl)-4-((phenethylsulfonyl)methyl)pyrrolidine-2-carboxylic acid] | 3050 nM
CN(CC#Cc1ccccc1)[C@H]1C[C@@H](C(=O)O)N(C(=O)C(c2ccccc2)c2ccccc2)C1 [Compound 116, (2S,4S)1-(2,2-diphenylacetyl)-4-(methyl(3-phenylprop-2-yn-1-yl)amino)pyrrolidine-2-carboxylic acid] | 650 nM
O=C(O)[C@@H]1C[C@H](CSCc2ccccc2)CN1C(=O)C(c1ccccc1)c1ccccc1 [Compound 121, (2S,4S)-4-((benzylthio)methyl)-1-(2,2-diphenylacetyl)pyrrolidine-2-carboxylic acid] | 57.7 nM
O=C(O)[C@@H]1C[C@H](S(=O)(=O)CCCc2ccc(F)cc2)CN1C(=O)C(c1ccccc1)c1ccccc1 [Compound 134, (2S,4S)-1-(2,2-diphenylacetyl)-4((3-(4-fluorophenyl)propyl)sulfonyl)pyrrolidine-2-carboxylic acid] | 954 nM
O=C(O)[C@@H]1C[C@H](N2CC[C@H](c3ccccc3)C2)CN1C(=O)C(c1ccccc1)c1ccccc1 [Compound 87] | 43.6 nM

The next lines start with the values.

IC50 | Compound
2260 nM | O=C(O)[C@@H]1C[C@H](NCCc2ccccc2)CN1C(=O)C(c1ccccc1)c1ccccc1 [Compound 46, (2S,4S)-1-(2,2-diphenylacetyl)-4-(phenethylamino)-pyrrolidine-2-carboxylic acid]
58.8 nM | O=C(O)[C@@H]1C[C@H](N2CCC[C@H](c3ccccc3)C2)CN1C(=O)C(c1ccccc1)c1ccccc1 [Compound 49, (2S,4S)-1-(2,2-diphenylacetyl)-4-((R)-3-phenylpiperidin-1-yl)pyrrolidine-2-carboxylic acid]
1660 nM | O=C(O)[C@@H]1C[C@H](OCC#Cc2ccccc2)CN1C(=O)C(c1ccccc1)c1ccccc1 [Compound 36, (2S,4S)-1-(2,2-diphenylacetyl)-4-((3-phenylprop-2-yn-1-yl)-oxy)pyrrolidine-2-carboxylic acid]
314 nM | O=C(O)[C@@H]1C[C@H](CS(=O)(=O)Cc2ccccc2)CN1C(=O)C(c1ccccc1)c1ccccc1 [Compound 118, (2S,4S)-4-((benzylsulfonyl)methyl)-1-(diphenylacetyl)-pyrrolidine-2-carboxylic acid]
155 nM | O=C(O)[C@@H]1C[C@H](COCc2ccccc2)CN1C(=O)C(c1ccccc1)c1ccccc1 [Compound 54]
540 nM | CN(CCCc1ccccc1)[C@H]1C[C@@H](C(=O)O)N(C(=O)C(c2ccccc2)C2CCCCC2)C1 (stereo partly drawn) [Compound 62, (2S,4S)-1-(2-cyclohexyl-2-phenylacetyl)-4-(methyl(3-phenylpropyl)amino)pyrrolidine-2-carboxylic acid]
143 nM | O=C(O)[C@@H]1C[C@H](CSc2ccccc2)CN1C(=O)C(c1ccccc1)c1ccccc1 [Compound 122, (2S,4S)-1-(2,2-diphenylacetyl)-4-((phenylthio)methyl)pyrrolidine-2-carboxylic acid]
1320 nM | O=C(O)[C@@H]1C[C@H](OCCCc2ccc(F)cc2)CN1C(=O)C(c1ccccc1)c1ccccc1 [Compound 104, (2S,4S)-1-(2,2-diphenylacetyl)-4-(3-(4-fluorophenyl)-propoxy)pyrrolidine-2-carboxylic acid]
2650 nM | O=C(O)[C@@H]1C[C@H](CS(=O)(=O)c2ccccc2)CN1C(=O)C(c1ccccc1)c1ccccc1 [Compound 119, (2S,4S)-4-((phenylsulfonyl)methyl)-1-(diphenylacetyl)-pyrrolidine-2-carboxylic acid]
400 nM | O=C(O)[C@@H]1C[C@H](n2nncc2Cc2ccccc2)CN1C(=O)C(c1ccccc1)c1ccccc1 [Compound 101, (2S,4S)-4-(5-benzyl-1H-1,2,3-triazol-1-yl)-1-(2,2-diphenylacetyl)pyrrolidine-2-carboxylic acid]
114 nM | O=C(O)[C@@H]1C[C@H](OCc2ccccc2)CN1C(=O)C(c1ccccc1)c1ccccc1 [Compound 2, (2S,4S)-4-(benzyloxy)-1-(2,2-diphenylacetyl)pyrrolidine-2-carboxylic acid]
1240 nM | O=C(O)[C@@H]1C[C@H](S(=O)(=O)CCCc2ccccc2)CN1C(=O)C(c1ccccc1)c1ccccc1 [Compound 125, (2S,4S)-1-(2,2-diphenylacetyl)-4-((3-phenylpropyl)-sulfonyl)pyrrolidine-2-carboxylic acid]
